According to article PMC5054527, “Mechanism of high affinity inhibition of the human urate transporter URAT1” (Scientific Reports, 2016):
Values joined by “and” are separate entries in the source; they are usually repeats but may differ in a detail not shown here. Equal values may be shown once.

Legend:
[1] = target: h-r IC3 URAT1 chimera (Homo sapiens, UniProt Q96S37, F348L/G295S/G307R/G309K/G331N/I305V/K308R/L287I/L321R/L328P/M330G/M343T/P317V/P333A/P334G/Q297R/Q312A/R325Q/R342H/S329N/S336R/T289V/V311E/W294Q/W300Q); test: cell-based
From the text: (§1) hURAT1 (GenBank BC053348.1) and rURAT1 (NCBI NM_001034943.1) genes were purchased from Origene Technologies, Inc. and subcloned into pCMV6/neo using NotI, creating pCMV6/neo-hURAT1 and pCMV6/neo-rURAT1. Mutants were produced by polymerase chain reaction (PCR) or site-directed mutagenesis using the QuikChange Lightning Multi Site-Directed Mutagenesis Kit (Agilent Technologies). […] Detailed methods are provided in Supplementary Methods, and primers are listed in Supplementary Table 1. […] Residues in rURAT1 and hOAT1 that correspond to the residues in hURAT1 were identified from aligned protein sequences (Supplementary Fig. 1)[50].
(§2) DNA (10 μg) was mixed with 30 μl of DreamFect Gold (Boca Scientific) in 2 ml OptiMem (Life Technologies). […]
(§3) Compounds were serially diluted into assay buffer and added to the cells for 5 minutes prior to addition of radiolabelled uric acid substrate. […] Each treatment was measured in triplicate. […]
(§4) Nonlinear regression analyses using GraphPad Prism software were used to calculate the potency of URAT1 inhibitors (IC50 values) from log (inhibitor) versus response - variable slope (four parameters) equations. Statistical significance was assessed using Student’s unpaired t-tests.

[2] = target: h-r EC1,TM2-4 URAT1 chimera (Homo sapiens, UniProt Q96S37, A103T/A133T/A162V/A184S/A189I/A193M/A195T/A226S/A51V/A59S/A71V/D100E/E110D/E70D/F192L/F208S/G218A/H142Q/I126T/I75V/K134T/K145R/L174R/L206V/L64P/L67F/L99I/M183V/M186S/N136D/N82D/P101S/P165H/P69R/Q182L/R124H/R89L/S107N/S46H/S66D/S68G/T128R/T219S/V117E/V198L/Y152F); test: cell-based; details: IC50 (uric acid transport), HEPES pH 7.3, 100 μM 14C-uric acid
From the text: as §1, §2, §3, §4

h-r EC1,TM2-4 URAT1 chimera, sequence (Q96S37 1-553 with the stated changes): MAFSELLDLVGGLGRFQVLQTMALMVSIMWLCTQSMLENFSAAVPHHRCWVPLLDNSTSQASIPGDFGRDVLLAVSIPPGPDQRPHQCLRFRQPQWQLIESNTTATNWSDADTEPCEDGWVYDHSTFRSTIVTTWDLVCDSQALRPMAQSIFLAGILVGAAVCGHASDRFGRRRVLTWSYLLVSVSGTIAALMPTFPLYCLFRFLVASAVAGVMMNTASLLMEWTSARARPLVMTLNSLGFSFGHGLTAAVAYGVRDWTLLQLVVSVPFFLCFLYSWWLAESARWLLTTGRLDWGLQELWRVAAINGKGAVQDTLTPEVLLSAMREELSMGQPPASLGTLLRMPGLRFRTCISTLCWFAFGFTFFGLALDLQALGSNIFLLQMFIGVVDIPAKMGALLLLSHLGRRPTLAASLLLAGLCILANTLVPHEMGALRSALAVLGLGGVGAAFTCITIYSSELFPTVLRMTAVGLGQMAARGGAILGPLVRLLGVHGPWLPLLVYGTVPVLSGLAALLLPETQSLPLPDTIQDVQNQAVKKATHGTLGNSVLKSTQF
h-r IC3 URAT1 chimera, sequence (Q96S37 1-553 with the stated changes): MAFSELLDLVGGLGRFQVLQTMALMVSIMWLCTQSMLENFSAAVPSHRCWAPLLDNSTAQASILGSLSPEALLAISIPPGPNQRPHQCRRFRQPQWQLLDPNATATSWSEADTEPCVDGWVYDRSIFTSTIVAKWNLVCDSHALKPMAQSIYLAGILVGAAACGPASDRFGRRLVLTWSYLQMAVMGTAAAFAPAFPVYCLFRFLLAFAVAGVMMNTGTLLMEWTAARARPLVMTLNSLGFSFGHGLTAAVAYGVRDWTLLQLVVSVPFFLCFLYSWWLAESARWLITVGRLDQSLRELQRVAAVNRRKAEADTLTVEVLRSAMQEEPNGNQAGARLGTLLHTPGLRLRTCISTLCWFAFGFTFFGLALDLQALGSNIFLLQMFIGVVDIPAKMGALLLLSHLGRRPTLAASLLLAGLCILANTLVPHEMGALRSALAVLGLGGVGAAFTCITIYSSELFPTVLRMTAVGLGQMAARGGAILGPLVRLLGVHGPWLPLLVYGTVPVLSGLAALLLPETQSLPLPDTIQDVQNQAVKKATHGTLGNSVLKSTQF

O=C1C(CC[S+]([O-])c2ccccc2)C(=O)N(c2ccccc2)N1c1ccccc1 (centres unmarked) [sulfinpyrazone] was tested, and the IC50 [1] was 67 ± 15 µM and the IC50 [2] was 3 µM and 3.4 µM.
